Assay results published in patent US8598365B2, “Herbicides” (Syngenta Limited, priority 2007, dated 2013).

Tests used:
Type in all cases: in vivo
[1] = system: Digitaria sanguinalis (DIGSA); test: Example A post-emergence herbicidal activity; conditions: rate 125 g/ha, evaluated 14 or 15 days later
Procedure: (§1) Seeds of a variety of test species were sown in standard soil in pots. After cultivation for one day (pre-emergence) or after 10 days cultivation (post-emergence) under controlled conditions in a glasshouse, the plants were sprayed with an aqueous spray solution derived from the formulation of the technical active ingredient in 0.6 ml acetone and 45 ml formulation solution containing 10.6% Emulsogen EL (Registry number 61791-12-6), 42.2% N-methylpyrrolidone, 42.2% dipropylene glycol monomethyl ether (Registry number 34590-94-8) and 0.2% X-77 (Registry number 11097-66-8). The test plants were then grown in a greenhouse under optimum conditions until, 14 or 15 days later for post-emergence and 19 or 20 days for pre-emergence, the test was evaluated (100=total damage to plant; 0=no damage to plant). Alopecurus myosuroides (ALOMY), Avena fatua (AVEFA), Lolium perenne (LOLPE), Setaria faberi (SETFA), Digitaria sanguinalis (DIGSA), Echinochloa crus-galli (ECHCG)

Lolium perenne (LOLPE) [2] = test: Example A post-emergence herbicidal activity; conditions: rate 125 g/ha, evaluated 14 or 15 days later
Procedure: as §1

Setaria faberi (SETFA) [3] = test: Example A post-emergence herbicidal activity; conditions: rate 125 g/ha, evaluated 14 or 15 days later
Procedure: as §1

[4] = system: Echinochloa crus-galli (ECHCG); test: Example A post-emergence herbicidal activity; conditions: rate 125 g/ha, evaluated 14 or 15 days later
Procedure: as §1

Avena fatua (AVEFA) [5] = test: Example A post-emergence herbicidal activity; conditions: rate 125 g/ha, evaluated 14 or 15 days later
Procedure: as §1

[6] = system: Alopecurus myosuroides (ALOMY); test: Example A post-emergence herbicidal activity; conditions: rate 125 g/ha, evaluated 14 or 15 days later
Procedure: as §1

[7] = system: Digitaria sanguinalis (DIGSA); test: Example A pre-emergence herbicidal activity; conditions: rate 250 g/ha, evaluated 19 or 20 days later
Procedure: as §1

Lolium perenne (LOLPE) [8] = test: Example A pre-emergence herbicidal activity; conditions: rate 250 g/ha, evaluated 19 or 20 days later
Procedure: as §1

Setaria faberi (SETFA) [9] = test: Example A pre-emergence herbicidal activity; conditions: rate 250 g/ha, evaluated 19 or 20 days later
Procedure: as §1

[10] = system: Echinochloa crus-galli (ECHCG); test: Example A pre-emergence herbicidal activity; conditions: rate 250 g/ha, evaluated 19 or 20 days later
Procedure: as §1

Avena fatua (AVEFA) [11] = test: Example A pre-emergence herbicidal activity; conditions: rate 250 g/ha, evaluated 19 or 20 days later
Procedure: as §1

[12] = system: Alopecurus myosuroides (ALOMY); test: Example A pre-emergence herbicidal activity; conditions: rate 250 g/ha, evaluated 19 or 20 days later
Procedure: as §1

Setaria faberi (SETFA) [13] = test: Example B post-emergence herbicidal activity; conditions: 312 h, rate 250 g/ha, evaluated after 13 days, read-out: Post-emergence activity SETFA (100=total damage to plant; 0=no damage to plant)
Method in brief: (§2)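 Pre-emergence spraying at one day, post-emergence at eight days after sowing. Spray solution in acetone/water (50:50) plus 0.5% Tween 20; plants held at 24/16 °C day/night, 14 h light, 65% humidity. Evaluation at 13 days on a 0–100 damage scale.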

[14] = system: Echinochloa crus-galli (ECHCG); test: Example B post-emergence herbicidal activity; conditions: 312 h, rate 250 g/ha, evaluated after 13 days, read-out: Post-emergence activity ECHCG (100=total damage to plant; 0=no damage to plant)
Method in brief: as §2

[15] = system: Amaranthus retoflexus (AMARE); test: Example B post-emergence herbicidal activity; conditions: Amaranthus retroflexus, 312 h, rate 250 g/ha, evaluated after 13 days, read-out: Post-emergence activity AMARE (100=total damage to plant; 0=no damage to plant)
Method in brief: as §2

Avena fatua (AVEFA) [16] = test: Example B post-emergence herbicidal activity; conditions: 312 h, rate 250 g/ha, evaluated after 13 days, read-out: Post-emergence activity AVEFA (100=total damage to plant; 0=no damage to plant)
Method in brief: as §2

[17] = system: Alopecurus myosuroides (ALOMY); test: Example B post-emergence herbicidal activity; conditions: 312 h, rate 250 g/ha, evaluated after 13 days, read-out: Post-emergence activity ALOMY (100=total damage to plant; 0=no damage to plant)
Method in brief: as §2

Setaria faberi (SETFA) [18] = test: Example B pre-emergence herbicidal activity; conditions: 312 h, rate 250 g/ha, evaluated after 13 days, read-out: Pre-Emergence Activity SETFA (100=total damage to plant; 0=no damage to plant)
Method in brief: as §2

[19] = system: Echinochloa crus-galli (ECHCG); test: Example B pre-emergence herbicidal activity; conditions: 312 h, rate 250 g/ha, evaluated after 13 days, read-out: Pre-Emergence Activity ECHCG (100=total damage to plant; 0=no damage to plant)
Method in brief: as §2

[20] = system: Amaranthus retoflexus (AMARE); test: Example B pre-emergence herbicidal activity; conditions: Amaranthus retroflexus, 312 h, rate 250 g/ha, evaluated after 13 days, read-out: Pre-Emergence Activity AMARE (100=total damage to plant; 0=no damage to plant)
Method in brief: as §2

Avena fatua (AVEFA) [21] = test: Example B pre-emergence herbicidal activity; conditions: 312 h, rate 250 g/ha, evaluated after 13 days, read-out: Pre-Emergence Activity AVEFA (100=total damage to plant; 0=no damage to plant)
Method in brief: as §2

[22] = system: Alopecurus myosuroides (ALOMY); test: Example B pre-emergence herbicidal activity; conditions: 312 h, rate 250 g/ha, evaluated after 13 days, read-out: Pre-Emergence Activity ALOMY (100=total damage to plant; 0=no damage to plant)
Method in brief: as §2

| Compound | Post-Emergence Activity DIGSA (100=total damage to plant; 0=no damage to plant) [1] | Post-Emergence Activity LOLPE (100=total damage to plant; 0=no damage to plant) (Lolium perenne (LOLPE) [2]) | Post-Emergence Activity SETFA (100=total damage to plant; 0=no damage to plant) (Setaria faberi (SETFA) [3]) | Post-Emergence Activity ECHCG (100=total damage to plant; 0=no damage to plant) [4] | Post-Emergence Activity AVEFA (100=total damage to plant; 0=no damage to plant) (Avena fatua (AVEFA) [5]) | Post-Emergence Activity ALOMY (100=total damage to plant; 0=no damage to plant) [6] | Pre-Emergence Activity DIGSA (100=total damage to plant; 0=no damage to plant) [7] | Pre-Emergence Activity LOLPE (100=total damage to plant; 0=no damage to plant) (Lolium perenne (LOLPE) [8]) | Pre-Emergence Activity SETFA (100=total damage to plant; 0=no damage to plant) (Setaria faberi (SETFA) [9]) | Pre-Emergence Activity ECHCG (100=total damage to plant; 0=no damage to plant) [10] | pest or weed control at 250 g/ha (Setaria faberi (SETFA) [13]) [%] | pest or weed control at 250 g/ha [14] [%] | pest or weed control at 250 g/ha [15] [%] | pest or weed control at 250 g/ha (Avena fatua (AVEFA) [16]) [%] | pest or weed control at 250 g/ha [17] [%] | pest or weed control at 250 g/ha (Setaria faberi (SETFA) [18]) [%] | pest or weed control at 250 g/ha [19] [%] | pest or weed control at 250 g/ha [20] [%] | pest or weed control at 250 g/ha (Avena fatua (AVEFA) [21]) [%] | pest or weed control at 250 g/ha [22] [%] | also measured |
| --- | --- | --- | --- | --- | --- | --- | --- | --- | --- | --- | --- | --- | --- | --- | --- | --- | --- | --- | --- | --- | --- |
| Cc1[se]c(-c2ccc(Cl)cc2)nc1C1C(=O)[C@@H]2CC[C@@H](C2)C1=O (stereo partly drawn) [Compound T1, 3-[2-(4-chlorophenyl)-5-methylselenazol-4-yl]bicyclo[3.2.1]octane-2,4-dione] | 80 | 30 | 90 | 100 | 70 | 70 | 60 | 80 | 70 | 60 |  |  |  |  |  |  |  |  |  |  | Pre-Emergence Activity AVEFA (100=total damage to plant; 0=no damage to plant) (Avena fatua (AVEFA) [11]): 20; Pre-Emergence Activity ALOMY (100=total damage to plant; 0=no damage to plant) [12]: 60 |
| Cc1sc(-c2ccc(Br)cc2)nc1C1C(=O)[C@@H]2CC[C@@H](C2)C1=O (stereo partly drawn) [Compound T15] | 100 | 50 | 100 | 70 | 90 | 90 | 100 | 100 | 100 | 100 |  |  |  |  |  |  |  |  |  |  | Pre-Emergence Activity ALOMY (100=total damage to plant; 0=no damage to plant) [12]: 90 |
| Cc1sc(-c2ccc(Cl)nc2)nc1C1C(=O)[C@@H]2CC[C@@H](C2)C1=O (stereo partly drawn) [Compound T16] | 70 | 20 | 60 | 50 | 40 | 20 | 80 | 20 | 80 | 70 |  |  |  |  |  |  |  |  |  |  | Pre-Emergence Activity AVEFA (100=total damage to plant; 0=no damage to plant) (Avena fatua (AVEFA) [11]): 20; Pre-Emergence Activity ALOMY (100=total damage to plant; 0=no damage to plant) [12]: 10 |
| Cc1sc(-c2ccc(Cl)cc2)nc1C1C(=O)[C@@H]2CC[C@@H](C2)C1=O (stereo partly drawn) [Compound T17] | 80 | 40 | 80 | 90 | 50 | 70 | 100 | 100 | 100 | 100 |  |  |  |  |  |  |  |  |  |  | Pre-Emergence Activity AVEFA (100=total damage to plant; 0=no damage to plant) (Avena fatua (AVEFA) [11]): 100; Pre-Emergence Activity ALOMY (100=total damage to plant; 0=no damage to plant) [12]: 100 |
| CCc1sc(-c2ccc(C(F)(F)F)cc2)nc1C1C(=O)[C@@H]2CC[C@@H](C2)C1=O (stereo partly drawn) [Compound T96] |  |  |  |  |  |  |  |  |  |  | 100 | 100 | 30 | 100 | 100 | 100 | 100 | 0 | 100 | 80 |  |
| CCc1sc(-c2ccc3ccccc3c2)nc1C1C(=O)[C@@H]2CC[C@@H](C2)C1=O (stereo partly drawn) [Compound T99] |  |  |  |  |  |  |  |  |  |  | 100 | 100 | 0 | 100 | 100 | 60 | 60 | 20 | 30 | 50 |  |
| CCc1sc(-c2cc(F)c(OC)cc2F)nc1C1C(=O)[C@@H]2CC[C@@H](C2)C1=O (stereo partly drawn) [Compound T102] |  |  |  |  |  |  |  |  |  |  | 100 | 100 | 0 | 100 | 100 | 50 | 70 | 0 | 30 | 50 |  |
| CCc1sc(-c2ccc(F)cc2F)nc1C1C(=O)[C@@H]2CC[C@@H](C2)C1=O (stereo partly drawn) [Compound T104] |  |  |  |  |  |  |  |  |  |  | 100 | 100 | 0 | 90 | 100 | 50 | 100 | 0 | 20 | 70 |  |
| CCc1sc(-c2ccccc2Cl)nc1C1C(=O)[C@@H]2CC[C@@H](C2)C1=O (stereo partly drawn) [Compound T106] |  |  |  |  |  |  |  |  |  |  | 70 | 30 | 0 | 0 | 10 | 20 | 10 | 0 | 0 | 0 |  |
| CCc1sc(-c2cnc(Cl)cc2C)nc1C1C(=O)[C@@H]2CC[C@@H](C2)C1=O (stereo partly drawn) [Compound T110] |  |  |  |  |  |  |  |  |  |  | 100 | 90 | 0 | 70 | 60 | 100 | 60 | 20 | 30 | 30 |  |
| CCc1sc(-c2ccc(OC)c(F)c2)nc1C1C(=O)[C@@H]2CC[C@@H](C2)C1=O (stereo partly drawn) [Compound T111] |  |  |  |  |  |  |  |  |  |  | 100 | 100 | 0 | 100 | 100 | 80 | 100 | 0 | 90 | 50 |  |
